Experimental data as given in the supplement of paper PMC6045584.
± gives the standard deviation of the averaged measurements.

How the values were obtained:
[1] = compound: NS(=O)(=O)OC[C@@H]1C[C@@H](n2ccc3c(N[C@H]4CCc5ccccc54)ncnc32)C[C@@H]1O [MLN-4924]; assay: surviving fraction relative to DMSO-only wells; higher = less growth inhibition; conditions: exposure time: 5 days
How it was run: (§1)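 For each tumour cell line, log-phase cells were put into 384-well plates at 250–500 cells per well, then after 24 hours exposed continuously for five days to inhibitors at 0.5, 1, 5, 10, 50, 100, 500 and 1000 nM. Viability was assessed by CellTiter-Glo luminescence, with surviving fraction expressed relative to the median of DMSO-only wells. Lines were screened three times and retained only if replicate Pearson r exceeded 0.7 and median Z' exceeded 0.3.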

[2] = compound: C[C@@H](Oc1cc(-c2cnn(C3CCNCC3)c2)cnc1N)c1c(Cl)ccc(F)c1Cl; assay: as above; conditions: exposure time: 5 days
How it was run: as §1

Test System | surviving fraction ([1]; 0.5 nM) | surviving fraction ([1]; 1 nM) | surviving fraction ([1]; 5 nM) | surviving fraction ([1]; 10 nM) | surviving fraction ([1]; 50 nM) | surviving fraction ([1]; 100 nM) | surviving fraction ([1]; 500 nM) | surviving fraction ([1]; 1000 nM) | surviving fraction ([2]; 0.5 nM) | surviving fraction ([2]; 1 nM) | surviving fraction ([2]; 5 nM) | surviving fraction ([2]; 10 nM) | surviving fraction ([2]; 500 nM) | surviving fraction ([2]; 1000 nM) | surviving fraction ([2]; 50 nM) | surviving fraction ([2]; 100 nM)
22RV1 PROSTATE | 1.07 ± 0.05 | 0.967 ± 0.15 | 1.03 ± 0.12 | 0.81 ± 0.1 | 0.653 ± 0.048 | 0.47 ± 0.055 | 0.283 ± 0.058 | 0.26 ± 0.13 | 0.954 ± 0.079 | 1.01 ± 0.02 | 0.958 ± 0.022 | 0.944 ± 0.033 | 0.59 ± 0.078 | 0.406 ± 0.027 | – | –
93VU HEADNECK | 1.01 ± 0.083 | 1.11 ± 0.068 | 1.09 ± 0.047 | 1.1 ± 0.051 | 0.828 ± 0.079 | 0.533 ± 0.034 | 0.166 ± 0.015 | 0.133 ± 0.0059 | 0.809 ± 0.025 | 0.816 ± 0.02 | 0.835 ± 0.043 | 0.866 ± 0.068 | 0.77 ± 0.02 | 0.521 ± 0.068 | 1.08 ± 0.068 | 1.06 ± 0.083
143B BONE | 1.03 ± 0.023 | 1.01 ± 0.034 | 1.04 ± 0.033 | 1.018 ± 0.0099 | 0.961 ± 0.042 | 0.699 ± 0.028 | 0.062 ± 0.0042 | 0.033 ± 0.0028 | 0.997 ± 0.012 | – | – | 0.997 ± 0.012 | 0.811 ± 0.039 | 0.643 ± 0.061 | – | 1.002 ± 0.0092
A549 LUNG | 1.061 ± 0.0093 | 1.05 ± 0.034 | 1.04 ± 0.023 | 1 ± 0.034 | 1.11 ± 0.041 | 1.1 ± 0.024 | 0.781 ± 0.011 | 0.417 ± 0.044 | – | 0.942 ± 0.01 | – | 0.909 ± 0.0099 | 1.009 ± 0.0093 | 0.552 ± 0.031 | 1.01 ± 0.014 | 1.04 ± 0.064
ASKA SYNOVIAL | 1.11 ± 0.025 | 1.01 ± 0.02 | 1.08 ± 0.14 | 1.151 ± 0.011 | 0.946 ± 0.18 | 0.486 ± 0.08 | 0.33 ± 0.04 | 0.348 ± 0.019 | 0.873 ± 0.092 | 0.773 ± 0.061 | 0.78 ± 0.035 | 0.69 ± 0.044 | 0.246 ± 0.014 | 0.249 ± 0.014 | 0.527 ± 0.028 | 0.415 ± 0.021
BT20 BREAST | 1.13 ± 0.042 | 1.168 ± 0.0072 | 1.13 ± 0.073 | 1.16 ± 0.1 | 1.2 ± 0.084 | 1.23 ± 0.18 | 0.989 ± 0.098 | 0.645 ± 0.044 | 0.82 ± 0.047 | 0.792 ± 0.032 | 0.808 ± 0.092 | 0.821 ± 0.071 | 0.786 ± 0.04 | 0.468 ± 0.078 | 1 ± 0.074 | 1 ± 0.052
BT549 BREAST | 1.05 ± 0.043 | 1 ± 0.19 | 1.02 ± 0.064 | 0.957 ± 0.052 | 0.732 ± 0.14 | 0.575 ± 0.062 | 0.194 ± 0.067 | 0.148 ± 0.046 | 0.76 ± 0.093 | 0.99 ± 0.11 | – | 0.905 ± 0.019 | – | 0.371 ± 0.042 | 1.1 ± 0.073 | –
C33A CERVIX | 0.905 ± 0.042 | 0.916 ± 0.093 | 0.929 ± 0.13 | 0.952 ± 0.11 | 0.542 ± 0.032 | 0.358 ± 0.027 | 0.132 ± 0.026 | 0.0803 ± 0.028 | 1.01 ± 0.068 | – | 1.08 ± 0.13 | 1.14 ± 0.059 | 0.565 ± 0.028 | 0.515 ± 0.011 | 1.06 ± 0.044 | –
CADOES1 SOFT TISSUE | 0.993 ± 0.094 | 0.97 ± 0.047 | 0.913 ± 0.052 | 0.787 ± 0.057 | 0.879 ± 0.057 | 0.812 ± 0.082 | 0.0993 ± 0.014 | 0.053 ± 0.007 | – | 0.89 ± 0.16 | 0.961 ± 0.088 | 0.936 ± 0.036 | 0.576 ± 0.054 | 0.291 ± 0.033 | 0.93 ± 0.042 | 0.941 ± 0.04
